Reference: paper PMC6934184, “Selective DNA-PKcs inhibition extends the therapeutic index of localized radiotherapy and chemotherapy” (The Journal of Clinical Investigation, 2019)

Biological target: T1, CDC42 BPA (MRCKA) (Homo sapiens, UniProt Q5VT25)
T1 construct: purchased Thermo Fisher Scientific (Life Technologies) SelectScreen
Assay: SelectScreen Z'LYTE
Assay type: biochemical
Outline: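 Percent values come from Thermo SelectScreen profiling of NU5455, combining activity and binding assays. CSF1R was run in Z'LYTE format at Km app ATP, and CAMK1 in Adapta format with ATP listed at 10.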

T1 sequence (Q5VT25 whole entry): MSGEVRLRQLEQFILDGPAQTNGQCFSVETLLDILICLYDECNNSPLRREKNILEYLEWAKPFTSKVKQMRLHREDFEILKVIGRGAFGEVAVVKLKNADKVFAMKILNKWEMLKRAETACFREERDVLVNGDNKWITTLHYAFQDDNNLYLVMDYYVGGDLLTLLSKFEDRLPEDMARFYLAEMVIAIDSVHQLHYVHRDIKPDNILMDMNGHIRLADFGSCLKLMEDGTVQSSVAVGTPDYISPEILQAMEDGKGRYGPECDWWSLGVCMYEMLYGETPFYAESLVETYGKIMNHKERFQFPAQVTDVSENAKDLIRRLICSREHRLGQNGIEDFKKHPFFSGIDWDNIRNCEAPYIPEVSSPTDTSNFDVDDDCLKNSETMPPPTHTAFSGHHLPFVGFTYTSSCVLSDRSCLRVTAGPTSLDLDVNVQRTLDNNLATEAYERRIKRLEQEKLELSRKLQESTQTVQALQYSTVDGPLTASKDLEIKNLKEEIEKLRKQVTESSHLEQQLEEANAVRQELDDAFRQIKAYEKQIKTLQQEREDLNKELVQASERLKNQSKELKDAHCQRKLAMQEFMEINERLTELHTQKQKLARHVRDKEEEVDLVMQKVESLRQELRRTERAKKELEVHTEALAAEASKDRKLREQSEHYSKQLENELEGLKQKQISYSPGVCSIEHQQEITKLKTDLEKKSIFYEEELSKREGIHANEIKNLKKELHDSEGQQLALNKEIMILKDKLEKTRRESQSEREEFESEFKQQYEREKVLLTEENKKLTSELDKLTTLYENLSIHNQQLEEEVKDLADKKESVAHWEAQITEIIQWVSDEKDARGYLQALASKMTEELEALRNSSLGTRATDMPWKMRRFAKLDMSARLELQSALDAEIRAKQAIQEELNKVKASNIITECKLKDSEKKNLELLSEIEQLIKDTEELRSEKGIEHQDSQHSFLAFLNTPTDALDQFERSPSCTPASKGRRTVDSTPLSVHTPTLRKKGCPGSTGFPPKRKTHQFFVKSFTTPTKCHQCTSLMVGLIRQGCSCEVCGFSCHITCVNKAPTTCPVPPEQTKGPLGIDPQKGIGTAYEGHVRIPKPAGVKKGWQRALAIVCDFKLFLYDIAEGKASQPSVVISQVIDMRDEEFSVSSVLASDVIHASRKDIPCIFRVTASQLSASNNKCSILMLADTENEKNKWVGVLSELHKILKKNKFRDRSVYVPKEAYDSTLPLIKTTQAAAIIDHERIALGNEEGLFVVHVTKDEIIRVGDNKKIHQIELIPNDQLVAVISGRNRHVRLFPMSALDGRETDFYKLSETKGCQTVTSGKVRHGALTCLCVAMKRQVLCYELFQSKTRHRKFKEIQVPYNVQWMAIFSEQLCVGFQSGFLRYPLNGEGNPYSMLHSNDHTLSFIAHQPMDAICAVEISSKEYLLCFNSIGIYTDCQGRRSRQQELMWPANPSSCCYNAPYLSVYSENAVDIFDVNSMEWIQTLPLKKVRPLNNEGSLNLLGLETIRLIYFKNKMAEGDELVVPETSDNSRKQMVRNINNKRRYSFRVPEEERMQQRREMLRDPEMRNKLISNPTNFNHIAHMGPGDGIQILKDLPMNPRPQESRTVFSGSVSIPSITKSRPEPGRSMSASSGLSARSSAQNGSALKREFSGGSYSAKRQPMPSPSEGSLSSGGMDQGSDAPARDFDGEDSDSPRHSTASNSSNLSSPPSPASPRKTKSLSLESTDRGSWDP

With `CN(C(=O)CN1CCOCC1)c1ccc2sc3c(-c4cccc5c(=O)cc(N6CC7CCC(C6)O7)oc45)cccc3c2c1` [NU5455] the inhibition at 1 µM was 5%.
